From US8969363B2, “Heterocyclic compounds and uses thereof” (Infinity Pharmaceuticals, Inc., priority 2011, dated 2015)
pEC50, pIC50: −log10 of the molar value. Like-named read-outs stand apart in the source and are kept apart here.

Tests used:
Balb/c splenic B cells = assay: B cell activation and proliferation assay (Alamar Blue); type: cell-based; details: Mus musculus
Procedure, shortened: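 Balb/c splenic B cells (Ficoll, then MACS purification; 50,000/well) were preincubated 30 min with compound at 0.2% final DMSO. They were then stimulated 72 h at 37 °C with a cocktail of 10 μg/ml LPS, or 5 μg/ml anti-mouse F(ab′)2 plus 2 ng/ml mouse IL4. Alamar Blue was read after 5 h at 560Ex/590Em, giving IC50 or EC50.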

PI3Kδ = target: T1, PI3Kδ (Homo sapiens, UniProt O00329); assay: PI3 Kinase HTRF assay, PI3Kδ; type: biochemical; details: 10 μM PIP2, 10 μM ATP, read-out: PI3K δ IC50
T1 construct: purchased Millipore Corporation 14-604-K
T1 sequence (O00329 whole entry): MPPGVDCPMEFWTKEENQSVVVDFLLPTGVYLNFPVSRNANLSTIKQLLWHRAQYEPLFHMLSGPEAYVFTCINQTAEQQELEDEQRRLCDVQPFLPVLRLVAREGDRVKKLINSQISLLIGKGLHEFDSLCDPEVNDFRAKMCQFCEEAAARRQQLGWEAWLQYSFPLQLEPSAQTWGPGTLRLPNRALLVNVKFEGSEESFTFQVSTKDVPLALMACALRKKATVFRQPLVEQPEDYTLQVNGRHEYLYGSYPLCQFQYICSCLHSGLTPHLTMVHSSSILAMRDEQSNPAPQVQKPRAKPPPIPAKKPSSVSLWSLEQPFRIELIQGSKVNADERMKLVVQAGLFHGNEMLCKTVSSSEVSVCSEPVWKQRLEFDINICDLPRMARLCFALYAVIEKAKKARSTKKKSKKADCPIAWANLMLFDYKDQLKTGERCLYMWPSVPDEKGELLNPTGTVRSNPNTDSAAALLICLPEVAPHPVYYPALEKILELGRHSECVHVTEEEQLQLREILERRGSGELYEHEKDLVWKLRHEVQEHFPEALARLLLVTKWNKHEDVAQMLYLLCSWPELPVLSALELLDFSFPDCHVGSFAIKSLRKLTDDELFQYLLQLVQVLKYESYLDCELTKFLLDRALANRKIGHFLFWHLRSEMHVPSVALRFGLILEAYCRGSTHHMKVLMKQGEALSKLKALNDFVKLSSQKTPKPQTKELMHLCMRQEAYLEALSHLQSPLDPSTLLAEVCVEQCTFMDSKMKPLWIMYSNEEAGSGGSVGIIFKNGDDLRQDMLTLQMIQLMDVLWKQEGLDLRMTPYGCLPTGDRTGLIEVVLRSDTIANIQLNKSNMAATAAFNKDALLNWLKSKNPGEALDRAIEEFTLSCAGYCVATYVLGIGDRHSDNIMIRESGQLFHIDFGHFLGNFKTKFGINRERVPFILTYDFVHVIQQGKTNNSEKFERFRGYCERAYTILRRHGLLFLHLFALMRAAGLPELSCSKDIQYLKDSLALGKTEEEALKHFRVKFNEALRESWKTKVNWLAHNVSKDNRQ
T1 sequence (P27986 whole entry partner): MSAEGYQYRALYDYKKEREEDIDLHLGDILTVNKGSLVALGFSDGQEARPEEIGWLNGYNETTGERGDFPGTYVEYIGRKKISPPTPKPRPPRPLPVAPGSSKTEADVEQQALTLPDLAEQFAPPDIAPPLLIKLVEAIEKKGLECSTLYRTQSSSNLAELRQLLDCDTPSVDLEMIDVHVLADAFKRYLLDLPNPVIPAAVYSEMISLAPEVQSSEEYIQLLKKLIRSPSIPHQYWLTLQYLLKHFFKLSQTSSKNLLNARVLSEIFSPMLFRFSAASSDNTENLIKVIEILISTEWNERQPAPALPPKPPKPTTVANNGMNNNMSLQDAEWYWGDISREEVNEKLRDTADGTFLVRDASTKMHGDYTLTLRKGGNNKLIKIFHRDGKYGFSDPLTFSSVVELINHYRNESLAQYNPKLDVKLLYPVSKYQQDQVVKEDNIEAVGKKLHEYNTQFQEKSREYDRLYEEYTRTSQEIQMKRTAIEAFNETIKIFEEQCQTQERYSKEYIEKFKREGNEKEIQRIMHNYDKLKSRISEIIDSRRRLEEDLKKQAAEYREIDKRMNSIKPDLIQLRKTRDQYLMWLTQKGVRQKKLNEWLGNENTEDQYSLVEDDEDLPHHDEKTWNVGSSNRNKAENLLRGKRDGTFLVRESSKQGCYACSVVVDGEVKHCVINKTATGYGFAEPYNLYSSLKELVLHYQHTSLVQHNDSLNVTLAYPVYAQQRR
From the text: (§1) A PI3-Kinase HTRF® assay kit (cat No. 33-016) purchased from Millipore Corporation was used to screen compounds provided herein. This assay used specific, high affinity binding of the GRP1 pleckstrin homology (PH) domain to PIP3, the product of a Class 1A or 1B PI3 Kinase acting on its physiological substrate PIP2. During the detection phase of the assay, a complex was generated between the GST-tagged PH domain and biotinylated short chain PIP3. The biotinylated PIP3 and the GST-tagged PH domain recruited fluorophores (Streptavidin-Allophycocyanin and Europium-labeled anti-GST respectively) to form the fluorescence resonance energy transfer (FRET) architecture, generating a stable time-resolved FRET signal. The FRET complex was disrupted in a competitive manner by non-biotinylated PIP3, a product formed in the PI3 Kinase assay.
(§2) PI3 Kinase α, β, γ and δ activity was assayed using the PI3 Kinase HTRF® assay kit (catalogue No. 33-016) purchased from Millipore Corporation. Purified recombinant PI3Kα (catalogue No. 14-602-K), PI3Kβ (catalogue No. 14-603-K), PI3Kγ (catalogue No. 14-558-K) and PI3Kδ (catalogue No. 14-604-K) were obtained from Millipore Corporation. Purified recombinant PI3K enzyme was used to catalyze the phosphorylation of phosphatidylinositol 4,5-bisphosphate (PIP2 at 10 μM) to phosphatidylinositol 3,4,5-trisphosphate (PIP3) in the presence of 10 μM ATP. The assay was carried out in 384-well format and detected using a Perkin Elmer EnVision Xcite Multilabel Reader. Emission ratios were converted into percent inhibitions and imported into GraphPad Prism software. The concentration necessary to achieve inhibition of enzyme activity by 50% (IC50) was calculated using concentrations ranging from 20 μM to 0.1 nM (12-point curve). IC50 values were determined using a nonlinear regression model available in GraphPad Prism 5. […]

PI3Kγ = target: T2, PI3Kγ (Homo sapiens, UniProt P48736); assay: PI3 Kinase HTRF assay, PI3Kγ; type: biochemical; details: 10 μM PIP2, 10 μM ATP; 'Greater than 10 μM' and 'Greater than 1 μM to 10 μM'; read-out: PI3K γ IC50
T2 construct: purchased Millipore Corporation 14-558-K
T2 sequence (P48736 whole entry): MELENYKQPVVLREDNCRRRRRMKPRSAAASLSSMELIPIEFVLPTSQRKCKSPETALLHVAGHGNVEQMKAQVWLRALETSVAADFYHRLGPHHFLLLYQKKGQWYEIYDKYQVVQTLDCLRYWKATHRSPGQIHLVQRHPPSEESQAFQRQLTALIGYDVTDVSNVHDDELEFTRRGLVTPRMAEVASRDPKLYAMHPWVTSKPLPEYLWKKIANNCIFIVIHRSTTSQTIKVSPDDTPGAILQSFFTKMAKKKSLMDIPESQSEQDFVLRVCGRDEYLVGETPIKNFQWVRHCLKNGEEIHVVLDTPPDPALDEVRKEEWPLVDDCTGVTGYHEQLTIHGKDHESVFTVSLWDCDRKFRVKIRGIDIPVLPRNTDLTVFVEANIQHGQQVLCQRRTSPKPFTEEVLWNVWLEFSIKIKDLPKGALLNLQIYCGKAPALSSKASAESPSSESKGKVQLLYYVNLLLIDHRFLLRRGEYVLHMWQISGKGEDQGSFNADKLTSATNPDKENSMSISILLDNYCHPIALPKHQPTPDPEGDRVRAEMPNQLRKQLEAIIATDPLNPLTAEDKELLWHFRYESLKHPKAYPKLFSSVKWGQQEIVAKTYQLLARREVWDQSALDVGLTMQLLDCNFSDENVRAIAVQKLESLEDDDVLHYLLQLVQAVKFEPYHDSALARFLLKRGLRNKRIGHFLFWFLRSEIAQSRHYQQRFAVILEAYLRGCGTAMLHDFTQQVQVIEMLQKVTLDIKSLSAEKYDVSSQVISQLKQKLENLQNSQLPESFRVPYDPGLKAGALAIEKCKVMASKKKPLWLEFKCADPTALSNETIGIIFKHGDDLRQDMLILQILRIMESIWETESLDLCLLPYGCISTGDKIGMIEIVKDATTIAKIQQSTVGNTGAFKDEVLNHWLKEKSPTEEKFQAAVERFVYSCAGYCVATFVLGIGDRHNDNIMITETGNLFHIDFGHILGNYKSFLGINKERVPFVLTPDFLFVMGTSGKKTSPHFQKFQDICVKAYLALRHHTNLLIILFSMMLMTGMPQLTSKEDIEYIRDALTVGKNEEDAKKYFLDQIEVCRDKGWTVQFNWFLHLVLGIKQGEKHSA
From the text: as §1, §2

PI3Kβ = assay: PI3 Kinase HTRF assay, PI3Kβ; type: biochemical, human; details: 10 μM PIP2, 10 μM ATP; 'Greater than 10 μM' and 'Greater than 1 μM to 10 μM'; read-out: PI3K β IC50
PI3Kβ, sequence (Q8BTI9 whole entry, the tested form may be a part): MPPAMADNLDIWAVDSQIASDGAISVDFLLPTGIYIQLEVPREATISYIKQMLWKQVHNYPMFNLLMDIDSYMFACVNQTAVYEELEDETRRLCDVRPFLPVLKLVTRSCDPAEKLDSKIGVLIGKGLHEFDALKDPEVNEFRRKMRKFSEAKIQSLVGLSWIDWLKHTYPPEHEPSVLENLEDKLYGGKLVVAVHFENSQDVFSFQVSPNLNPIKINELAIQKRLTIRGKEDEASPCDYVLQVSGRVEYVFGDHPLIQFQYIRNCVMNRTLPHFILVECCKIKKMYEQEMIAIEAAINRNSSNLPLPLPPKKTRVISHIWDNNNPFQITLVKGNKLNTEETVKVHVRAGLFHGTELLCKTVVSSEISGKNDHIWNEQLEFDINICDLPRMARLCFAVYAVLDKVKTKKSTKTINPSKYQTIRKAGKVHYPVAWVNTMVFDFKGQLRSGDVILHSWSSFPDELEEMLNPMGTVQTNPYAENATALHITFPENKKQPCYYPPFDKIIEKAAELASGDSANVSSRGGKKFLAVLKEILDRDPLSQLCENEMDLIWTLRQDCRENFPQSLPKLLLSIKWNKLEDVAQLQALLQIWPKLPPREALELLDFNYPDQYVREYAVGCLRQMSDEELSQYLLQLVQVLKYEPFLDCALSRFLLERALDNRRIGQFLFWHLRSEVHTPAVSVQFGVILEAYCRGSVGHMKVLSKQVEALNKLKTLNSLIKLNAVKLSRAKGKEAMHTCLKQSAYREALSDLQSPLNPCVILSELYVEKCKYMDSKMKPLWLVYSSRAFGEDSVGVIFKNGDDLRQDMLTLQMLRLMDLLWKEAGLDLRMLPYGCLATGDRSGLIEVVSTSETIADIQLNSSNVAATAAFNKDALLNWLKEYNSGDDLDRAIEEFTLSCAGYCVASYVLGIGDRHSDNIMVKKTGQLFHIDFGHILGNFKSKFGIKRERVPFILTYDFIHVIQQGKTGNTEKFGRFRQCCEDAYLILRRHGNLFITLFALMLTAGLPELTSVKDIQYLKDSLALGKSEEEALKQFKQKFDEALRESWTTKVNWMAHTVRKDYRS
Procedure, shortened: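 Recombinant PI3Kβ converting PIP2 (10 μM) to PIP3 with 10 μM ATP; PIP3 detected by competitive HTRF displacement of biotin-PIP3/GST-GRP1 PH domain complex. Emission ratios converted to % inhibition; IC50 by nonlinear regression.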

PI3Kα = target: T3, PI3Kα (Homo sapiens, UniProt P42336); assay: PI3 Kinase HTRF assay, PI3Kα; type: biochemical; details: 10 μM PIP2, 10 μM ATP; 'Greater than 10 μM' and 'Greater than 1 μM to 10 μM'; read-out: PI3K α IC50
T3 construct: purchased Millipore Corporation 14-602-K
T3 sequence (P42336 whole entry): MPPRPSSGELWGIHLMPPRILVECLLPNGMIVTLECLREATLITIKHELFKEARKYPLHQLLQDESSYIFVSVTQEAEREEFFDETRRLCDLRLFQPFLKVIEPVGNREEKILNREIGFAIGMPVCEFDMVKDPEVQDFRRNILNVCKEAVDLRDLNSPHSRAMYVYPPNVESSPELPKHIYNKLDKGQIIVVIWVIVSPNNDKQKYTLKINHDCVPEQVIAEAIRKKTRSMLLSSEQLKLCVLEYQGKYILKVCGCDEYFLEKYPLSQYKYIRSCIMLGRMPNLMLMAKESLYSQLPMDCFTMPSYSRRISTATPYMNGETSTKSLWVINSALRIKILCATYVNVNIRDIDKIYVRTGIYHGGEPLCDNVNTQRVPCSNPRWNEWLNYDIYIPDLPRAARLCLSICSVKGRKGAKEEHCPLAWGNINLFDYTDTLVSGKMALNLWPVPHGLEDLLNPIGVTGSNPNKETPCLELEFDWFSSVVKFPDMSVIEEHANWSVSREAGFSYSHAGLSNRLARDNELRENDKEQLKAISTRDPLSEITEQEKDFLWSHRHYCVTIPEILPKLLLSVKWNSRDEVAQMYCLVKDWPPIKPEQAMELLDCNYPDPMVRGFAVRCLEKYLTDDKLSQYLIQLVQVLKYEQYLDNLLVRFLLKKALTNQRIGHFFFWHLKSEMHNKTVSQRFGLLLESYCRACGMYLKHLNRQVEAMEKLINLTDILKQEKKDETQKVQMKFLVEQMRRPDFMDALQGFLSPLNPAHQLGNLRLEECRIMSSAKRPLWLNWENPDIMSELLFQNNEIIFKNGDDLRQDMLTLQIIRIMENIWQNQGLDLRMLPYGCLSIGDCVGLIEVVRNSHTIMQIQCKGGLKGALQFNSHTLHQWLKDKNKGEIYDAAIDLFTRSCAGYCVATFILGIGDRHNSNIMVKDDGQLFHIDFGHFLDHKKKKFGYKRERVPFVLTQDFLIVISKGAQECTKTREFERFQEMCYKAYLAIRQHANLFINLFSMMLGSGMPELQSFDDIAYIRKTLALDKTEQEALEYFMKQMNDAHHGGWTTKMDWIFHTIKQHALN
T3 sequence (P27986 whole entry partner): as the sequence (P27986 whole entry partner) above
From the text: as §1, §2

[1] = system: phospho-AKT in RAW 264.7 cells (PI3Kγ); assay: PI3Kγ selective cellular assay: phospho-AKT in C5a stimulated RAW 264.7 cells; type: cell-based; details: Mus musculus, RAW264.7, range with units in value, read-out: IC50 for phospho-AKT, RAW 264.7 cell model
From the text: A compound's ability in selectively inhibiting PI3Kγ can be assessed using RAW264.7 macrophages. Briefly, serum-starved PAW264.7 cells are stimulated with a known GPCR agonist C5a. (See, e.g., Camps et al., Nature Medicine (2005) 11(9): 936-943). Cells can be treated with test compounds prior to, simultaneously with, or subsequent to the stimulation by C5a. RAW 264.7 cells respond to the complement component fragment C5a through activation of the C5a receptor, and the C5a receptor activates macrophages and induces cell migration. Test compounds' ability to inhibit C5a-mediated AKT phosphorylation is indicative of selective inhibition of PI3Kγ. Thus, by monitoring the reduction of phospho-AKT in stimulated RAW 264.7 cells (using for example, phospho-AKT antibodies), a compound's potential efficacy in selectively inhibiting PI3Kγ can be assessed.
Certain compounds provided herein (e.g., Compounds I-21, I-86, I-87, I-91, I-106, and III-13) were tested in RAW 264.7 cell model using procedures as described above.

[2] = system: phospho-AKT in RAJI cells (PI3Kδ); assay: PI3Kδ selective cellular assay: phospho-AKT in anti-human IgM stimulated RAJI cells; type: cell-based; details: read-out: IC50 for phospho-AKT, RAJI cell model
From the text: A compound's ability in selectively inhibiting PI3Kδ can be assessed using RAJI cells, i.e., B lymphocyte cells derived from lymphoma patients. Briefly, serum-starved RAJI cells are stimulated with anti-human IgM, thereby causing signaling through the B-cell receptors, as described in, for example, He et al., Leukemia Research (2009) 33: 798-802. B-cell receptor signaling is important for the activation, differentiation, and survival of B cells and certain B-cell derived cancers. Reduction of phospho-AKT is indicative of compounds that may inhibit B-cell proliferation and function in certain diseases. By monitoring the reduction of phospho-AKT in stimulated RAJI cells (using for example, phospho-AKT antibodies), a compound's potential efficacy in selectively inhibiting PI3Kδ can be assessed.
Certain compounds provided herein (e.g., Compounds I-21, I-86, I-87, I-91, I-106, and III-13) were tested in RAJI cell model using procedures as described above.

[3] = column 'Greater than 1 μM to 10 μM'
[4] = 'Greater than 10 μM' and 'Greater than 1 μM to 10 μM'

| pIC50 (PI3Kδ; [4]) | pIC50 (PI3Kγ) | pIC50 (PI3Kβ) | Compound | also measured |
| --- | --- | --- | --- | --- |
| – | – | – | C[C@H](Nc1ncnc2cccnc12)c1cc2c(F)ccc(Cl)c2c(=O)n1-c1ccccc1 [Compound I-14] | pEC50 (Balb/c splenic B cells; 'Less than 100 nM'): > 7.00; pIC50 (PI3Kδ; 'Less than 100 nM'): > 7.00 |
| 5.00 to 6.00 | 5.00 to 6.00 | < 5.00 | C[C@H](Nc1cc(O)nc2cccnc12)c1cc2cccc(Cl)c2c(=O)n1-c1ccccc1 [Compound I-100] | pEC50 (Balb/c splenic B cells; [3]): 5.00 to 6.00 |
| 5.00 to 6.00 | – | < 5.00 | C[C@H](Nc1ncnc2cccnc12)c1cc2scc(-c3cnn(C)c3)c2c(=O)n1-c1ccccc1 [Compound I-30] | – |
| 5.00 to 6.00 | – | 5.00 to 6.00 | C[C@H](Nc1ccnc2ccnn12)c1cc2cccc(Cl)c2c(=O)n1CCN1CCCC1 [II-28] | – |
| 5.00 to 6.00 | 5.00 to 6.00 | < 5.00 | C[C@H](Nc1nc(Cl)nc2nccnc12)c1cc2cccc(Cl)c2c(=O)n1-c1ccccc1 [IV-20] | – |
| 5.00 to 6.00 | – | < 5.00 | C[C@H](Nc1nc(Cl)nc2nc(Cl)cnc12)c1cc2cccc(Cl)c2c(=O)n1-c1ccccc1 [IV-19] | – |
| 5.00 to 6.00 | 5.00 to 6.00 | < 5.00 | Cc1cn2nccc(N[C@@H](C)c3cc4cccc(Cl)c4c(=O)n3-c3ccccc3)c2n1 [II-32] | – |
| 5.00 to 6.00 | – | < 5.00 | C[C@H](Nc1nc(Cl)nc2cccnc12)c1cc2cccc(C(F)(F)F)c2c(=O)n1-c1ccccc1 [III-22] | – |
| < 5.00 | < 5.00 | < 5.00 | C[C@@H](Nc1ncnc2cc(F)ccc12)c1cc2cccc(Cl)c2c(=O)n1-c1ccccc1 [IV-1] | pIC50 (PI3Kα): < 5.00 |
| 5.00 to 6.00 | – | < 5.00 | C[C@H](Nc1nc(Cl)nc2cccnc12)c1cc2cccc(Cl)c2c(=O)n1-c1ccccc1 [Compound I-52] | pEC50 (Balb/c splenic B cells; 1 μM to 100 nM): 6.00 to 7.00 |
| 5.00 to 6.00 | 5.00 to 6.00 | < 5.00 | Cc1cn2nccc(N[C@@H](C)c3cc4cccc(Cl)c4c(=O)n3-c3cccc(F)c3)c2n1 [II-31] | – |
| < 5.00 | < 5.00 | < 5.00 | C[C@@H](Nc1ncnc2cc(F)c(F)cc12)c1cc2cccc(Cl)c2c(=O)n1-c1ccccc1 [IV-3] | pIC50 (PI3Kα): < 5.00 |
| 5.00 to 6.00 | – | < 5.00 | COc1ncc(-c2cccc3cc([C@H](C)Nc4cc(O)nc5cccnc45)n(-c4ccccc4)c(=O)c23)cn1 [Compound I-99] | pEC50 (Balb/c splenic B cells; [3]): 5.00 to 6.00 |
| 5.00 to 6.00 | – | < 5.00 | C[C@H](Nc1nc(N)nc2cccnc12)c1cc2cccc(N(C)C)c2c(=O)n1-c1ccccc1 [Compound I-102] | – |
| 5.00 to 6.00 | – | < 5.00 | Cc1ccnc2cc(C(C)Nc3ncnc4cccnc34)[nH]c(=O)c12 (stereo not drawn) [Compound I-68, 4-methyl-7-(1-(pyrido[3,2-d]pyrimidin-4-ylamino)ethyl)-1,6-naphthyridin-5(6H)-one] | – |
| 5.00 to 6.00 | – | < 5.00 | C[C@H](Nc1ncc2[nH]cnc2n1)c1cc2cccc(Cl)c2c(=O)n1-c1ccccc1 [IV-7] | – |
| 5.00 to 6.00 | – | < 5.00 | C[C@H](Nc1ncnn2cncc12)c1cc2cccc(Cl)c2c(=O)n1-c1cccc(F)c1 [IV-14] | – |
| 5.00 to 6.00 | 5.00 to 6.00 | < 5.00 | C[C@H](Nc1ncnc2cccnc12)c1cc2cccc(-c3cnn(C)c3)c2c(=O)n1C [Compound I-46] | – |
| 5.00 to 6.00 | 5.00 to 6.00 | < 5.00 | C[C@H](Nc1cc(Cl)nn2ccnc12)c1cc2cccc(-c3cnn(C)c3)c2c(=O)n1C1CC1 [II-13] | – |
| – | 5.00 to 6.00 | 5.00 to 6.00 | CC(C)n1c([C@H](C)Nc2ncnc3cccnc23)cc2cccc(-c3ccc(=O)n(C)c3)c2c1=O [Compound I-106] | pIC50 [1]: 6.00 to 7.00; pIC50 (PI3Kα): 5.00 to 6.00; pIC50 [2]: > 7.00 |
| 5.00 to 6.00 | – | 5.00 to 6.00 | C[C@H](Nc1ccnn2ccnc12)c1cc2cccc(Cl)c2c(=O)n1CCN1CCCC1 [II-29] | – |
| 5.00 to 6.00 | 5.00 to 6.00 | < 5.00 | Cc1cn2nccc(N[C@@H](C)c3cc4cccc(-c5cnn(C)c5)c4c(=O)n3-c3ccccc3)c2n1 [II-33] | – |
| – | 5.00 to 6.00 | < 5.00 | C[C@H](Nc1ncnc2cccnc12)c1cc2cc(F)ccc2c(=O)n1-c1ccccc1 [Compound I-6] | pEC50 (Balb/c splenic B cells; 1 μM to 100 nM): 6.00 to 7.00; pIC50 (PI3Kα): 5.00 to 6.00 |
| 5.00 to 6.00 | – | < 5.00 | C[C@H](NCc1cnc2cccnn12)c1cc2cccc(Cl)c2c(=O)n1-c1ccccc1 [IV-9, (S)-8-chloro-3-(1-(imidazo[1,2-b]pyridazin-3-ylmethylamino)ethyl)-2-phenylisoquinolin-1(2H)-one] | – |
| 5.00 to 6.00 | – | < 5.00 | C[C@H](Nc1ncnn2cncc12)c1cc2cccc(C(F)(F)F)c2c(=O)n1-c1ccccc1 [III-28] | – |
